Laboratory results: US12059425B2, “Heterocyclic compounds and uses thereof” (Kumquat Biosciences Inc., priority 2022, dated 2024)

Legend:
Assay type in all cases: biochemical
wildtype K-Ras = biological target: T1, wildtype K-Ras (Homo sapiens, UniProt P01116); assay: PPI-HTRF assay, wildtype K-Ras / SOS1 interaction; details: HTRF, K-Ras wt; read-out: PPI-HTRF-5 nM (K-Ras wt IC50)
T1 construct: made in house; host or cells: E. coli, e.g. BL21 (DE3)
Text: (§1) This assay can be also used to assess a selective inhibition or reduction of signaling output of a mutant Ras protein relative to a wildtype, or relative to a different mutant Ras protein. For example, the equilibrium interaction of wildtype Kras or K-Ras mutant (e.g., wildtype or a mutant thereof) with SOS1 (e.g., hSOS1) can be assessed as a proxy or an indication for a subject compound's ability to bind and inhibit Ras protein. HTRF assay detects from (i) a fluorescence resonance energy transfer (FRET) donor (e.g., antiGST-Europium) that is bound to GST-tagged K-Ras mutant to (ii) a FRET acceptor (e.g., anti-6His-XL665) bound to a His-tagged hSOS1.
(§2) The assay buffer can contain ˜5 mM HEPES pH 7.4, ˜150 mM NaCl, ˜1 mM DTT, 0.05% BSA and 0.0025% (v/v) Igepal. A Ras working solution is prepared in an assay buffer containing typically a suitable amount of the protein construct (e.g., GST-tagged K-Ras mutant) and the FRET donor (e.g., antiGST-Eu(K) from Cisbio, France). A SOS1 working solution is prepared in an assay buffer containing suitable amount of the protein construct (e.g., His-hSOS1) and the FRET acceptor (e.g., anti-6His-XL665 from Cisbio, France). A suitable amount of the protein construct will depend on the range of activity or range of IC50 values being detected or under investigation. For detecting IC50 within a range of 500 nM, the protein constructs of the same range of molarity can be utilized.
(§3) A fixed volume of DMSO with or without test compound is transferred into a 384-well plate. Ras working solution is added to all wells of the test plate. SOS1 working solution is added to all wells except for those that are subsequently filled the inhibitor control solution. Upon incubation for about 10 minutes or longer, the fluorescence is measured with a M1000Pro plate reader (Tecan) using HTRF detection (excitation 337 nm, emission 1: 620 nm, emission 2: 665 nm). Compounds are tested in duplicate at different concentrations (for example, 10 μM, 2.5 μM, 0.63 μM, 0.16 μM, 0.04 μM, 0.01 μM test compound). The ratiometric data (i.e., emission 2 divided by emission 1) is used to calculate IC50 values against Ras using GraphPad Prism (GraphPad software). Following this general procedure, samples are tested with or without a subject compound disclosed herein including compounds exemplified in Table 1 to assess their abilities to inhibit a mutant K-Ras relative to another K-Ras (e.g., different mutant or wildtype). Signaling output measured in terms of IC50 values can be obtained, a ratio of IC50 against one mutant relative to another mutant can be calculated. For instance, a selective reduction of K-Ras G12D signaling output can be evidenced by a ratio greater than one. In particular, a selective reduction of K-Ras G12D signaling relative to K-Ras WT signaling is evidenced if the ratio of IC50 (against K-Ras WT) to IC50 (against K-Ras G12D) is greater than 1.

K-Ras G12V = biological target: T2, K-Ras G12V (Homo sapiens, UniProt P01116, G12V); assay: PPI-HTRF assay, K-Ras G12V / SOS1 interaction; details: HTRF, K-Ras G12V; read-out: PPI-HTRF-5 nM (K-Ras G12V IC50)
T2 construct: made in house; host or cells: E. coli, e.g. BL21 (DE3)
T2 sequence (P01116 1-188 isoform P01116-2 G12V): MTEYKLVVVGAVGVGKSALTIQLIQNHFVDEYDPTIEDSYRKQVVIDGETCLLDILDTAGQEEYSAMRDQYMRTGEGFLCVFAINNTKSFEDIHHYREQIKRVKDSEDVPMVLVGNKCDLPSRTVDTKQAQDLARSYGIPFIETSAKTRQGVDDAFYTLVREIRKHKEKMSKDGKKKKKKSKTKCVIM
Text: as §1, §2, §3

K-Ras G12S = biological target: T3, K-Ras G12S (Homo sapiens, UniProt P01116, G12S); assay: PPI-HTRF assay, K-Ras G12S / SOS1 interaction; details: read-out: PPI-HTRF-5 nM (K-Ras G12S IC50)
T3 construct: made in house; host or cells: E. coli, e.g. BL21 (DE3)
T3 sequence (P01116 1-188 isoform P01116-2 G12S): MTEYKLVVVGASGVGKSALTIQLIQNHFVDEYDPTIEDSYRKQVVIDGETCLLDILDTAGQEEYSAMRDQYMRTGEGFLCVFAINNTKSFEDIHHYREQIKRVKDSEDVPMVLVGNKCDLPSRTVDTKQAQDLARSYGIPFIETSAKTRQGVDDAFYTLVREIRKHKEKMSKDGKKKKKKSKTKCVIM
Text: as §1, §2, §3

K-Ras G12D = biological target: T4, K-Ras G12D (Homo sapiens, UniProt P01116, G12D); assay: PPI-HTRF assay, K-Ras G12D / SOS1 interaction; details: HTRF, K-Ras G12D; read-out: PPI-HTRF-5 nM (K-Ras G12D IC50)
T4 construct: made in house; host or cells: E. coli, e.g. BL21 (DE3)
T4 sequence (P01116 1-188 isoform P01116-2 G12D): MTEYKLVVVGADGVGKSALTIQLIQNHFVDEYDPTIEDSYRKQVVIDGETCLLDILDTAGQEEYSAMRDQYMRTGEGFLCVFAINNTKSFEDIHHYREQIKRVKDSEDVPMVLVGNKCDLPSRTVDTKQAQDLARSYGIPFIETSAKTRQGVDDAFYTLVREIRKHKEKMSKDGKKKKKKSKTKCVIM
Text: as §1, §2, §3

T1 sequence (P01116 1-188 isoform P01116-2): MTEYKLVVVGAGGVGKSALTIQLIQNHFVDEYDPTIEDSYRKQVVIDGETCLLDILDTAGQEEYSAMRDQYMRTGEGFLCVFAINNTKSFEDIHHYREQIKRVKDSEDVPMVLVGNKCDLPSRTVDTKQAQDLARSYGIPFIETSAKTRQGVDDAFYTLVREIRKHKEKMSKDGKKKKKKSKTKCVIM

Row | SMILES | IC50 (wildtype K-Ras) [µM] | IC50 (K-Ras G12V) [µM] | IC50 (K-Ras G12S) [µM] | IC50 (K-Ras G12D) [µM]
1 | N#Cc1c(N)sc2c(F)ccc(-c3c(Cl)c4c5c(nc(OC[C@@]67CCCN6C[C@H](F)C7)nc5c3F)N3CCC(C(F)F)CC3CO4)c12 (stereo partly drawn) [compound 194, 2-amino-4-(6-chloro-10-(difluoromethyl)-4-fluoro-2-(((2R,7aS)-2-fluorotetrahydro-1H-pyrrolizin-7a(5H)-yl)methoxy)-8,8a,9,10,11,12-hexahydropyrido[2′,1′:3,4][1,4]oxazepino [5,6,7-de]quinazolin-5-yl)-7-fluorobenzo[b]thiophene-3-carbonitrile] | < 5 | < 5 | < 5 | < 5
2 | CC(O)C1C[C@H]2CCCN2c2nc(OC[C@@]34CCCN3C[C@H](F)C4)nc3c(F)c(-c4ccc(F)c5sc(N)c(C#N)c45)c(Cl)c(c23)O1 (single isomer, unassigned) [compound 160] |  |  |  | < 5
3 | COCCN1c2nc(OC[C@@]34CCCN3C[C@H](F)C4)nc3c(F)c(-c4ccc(F)c5sc(N)c(C#N)c45)c(Cl)c(c23)OCC2COCC21 (stereo partly drawn) [compound 163, 2-amino-4-(6-chloro-4-fluoro-2-(((2R,7aS)-2-fluorotetrahydro-1H-pyrrolizin-7a(5H)-yl)methoxy)-12-(2-methoxyethyl)-8a,9,11a,12-tetrahydro-8H,11H-furo[3′,4′:6,7][1,5]oxazocino[4,3,2-de]quinazolin-5-yl)-7-fluorobenzo[b]thiophene-3-carbonitrile] | < 5 | < 5 | < 5 | < 5
4 | CN1c2nc(OC[C@@]34CCCN3C[C@H](F)C4)nc3c(F)c(-c4ccc(F)c5sc(N)c(C#N)c45)c(Cl)c(c23)OCC2CCCC21 (stereo partly drawn) [compound 165, 2-amino-4-(6-chloro-4-fluoro-2-(((2R,7aS)-2-fluorotetrahydro-1H-pyrrolizin-7a(5H)-yl)methoxy)-12-methyl-8a,9,10,11,11a,12-hexahydro-8H-cyclopenta[6,7][1,5]oxazocino[4,3,2-de]quinazolin-5-yl)-7-fluorobenzo[b]thiophene-3-carbonitrile] |  |  |  | < 5
5 | CN1c2nc(OC[C@@]34CCCN3C[C@H](F)C4)nc3c(F)c(-c4ccc(F)c5sc(N)c(C#N)c45)c(Cl)c(c23)OCC2COCCC21 (stereo partly drawn) [compound 198, 2-amino-4-(6-chloro-4-fluoro-2-(((2R,7aS)-2-fluorotetrahydro-1H-pyrrolizin-7a(5H)-yl)methoxy)-13-methyl-8a,9,11,12,12a,13-hexahydro-8H-pyrano[4′,3′:6,7][1,5]oxazocino[4,3,2-de]quinazolin-5-yl)-7-fluorobenzo[b]thiophene-3-carbonitrile] | < 5 | < 5 | < 5 | < 5
6 | N#Cc1c(N)sc2c(F)ccc(-c3c(Cl)c4c5c(nc(OCC67CCCN6C[C@H](F)C7)nc5c3F)N3CCC(OC(F)F)CC3CO4)c12 (single isomer, unassigned) [compound 118] | < 5 | < 5 | < 5 | < 5
7 | CN1c2nc(OC[C@@]34CCCN3C[C@H](F)C4)nc3c(F)c(-c4ccc(F)c5sc(N)c(C#N)c45)c(Cl)c(c23)OC2CN(C(=O)C(F)F)CC21 (stereo partly drawn) [compound 147, 2-amino-4-(6-chloro-9-(2,2-difluoroacetyl)-4-fluoro-2-(((2R,7aS)-2-fluorotetrahydro-1H-pyrrolizin-7a(5H)-yl)methoxy)-11-methyl-7a,8,9,10,10a,11-hexahydropyrrolo[3′,4′:2,3][1,4]oxazepino [5,6,7-de]quinazolin-5-yl)-7-fluorobenzo[b]thiophene-3-carbonitrile] | < 5 | < 5 | < 5 | < 5
8 | CN1c2nc(OC[C@@]34CCCN3C[C@H](F)C4)nc3c(F)c(-c4ccc(F)c5sc(N)c(C#N)c45)c(Cl)c(c23)OCC2OCCCC21 (stereo partly drawn) [compound 199, 2-amino-4-(6-chloro-4-fluoro-2-(((2R,7aS)-2-fluorotetrahydro-1H-pyrrolizin-7a(5H)-yl)methoxy)-13-methyl-8,8a,11,12,12a,13-hexahydro-10H-pyrano[3′,2′:6,7][1,5]oxazocino[4,3,2-de]quinazolin-5-yl)-7-fluorobenzo[b]thiophene-3-carbonitrile] | < 5 | < 5 | < 5 | < 5
9 | N#Cc1c(N)sc2c(F)ccc(-c3c(Cl)c4c5c(nc(OC[C@@]67CCCN6C[C@H](F)C7)nc5c3F)N3CCC(F)(F)CC3CO4)c12 (stereo partly drawn) [compound 203, 2-amino-4-(6-chloro-4,10,10-trifluoro-2-(((2R,7aS)-2-fluorotetrahydro-1H-pyrrolizin-7a(5H)-yl)methoxy)-8,8a,9,10,11,12-hexahydropyrido[2′,1′:3,4][1,4]oxazepino [5,6,7-de]quinazolin-5-yl)-7-fluorobenzo[b]thiophene-3-carbonitrile] | < 5 | < 5 | < 5 | < 5
10 | N#Cc1c(N)sc2c(F)ccc(-c3c(Cl)c4c5c(nc(OC[C@@]67CCCN6C[C@H](F)C7)nc5c3F)N(CC(F)F)C3CN(C=O)CC3O4)c12 (stereo partly drawn) [compound 201, 2-amino-4-(6-chloro-11-(2,2-difluoroethyl)-4-fluoro-2-(((2R,7aS)-2-fluorotetrahydro-1H-pyrrolizin-7a(5H)-yl)methoxy)-9-formyl-7a,8,9,10,10a,11-hexahydropyrrolo[3′,4′:2,3][1,4]oxazepino [5,6,7-de]quinazolin-5-yl)-7-fluorobenzo[b]thiophene-3-carbonitrile] | < 5 | < 5 | < 5 | < 5
11 | CC(C)C1NCC12CC[C@H]1COc3c(Cl)c(-c4ccc(F)c5sc(N)c(C#N)c45)c(F)c4nc(OC[C@@]56CCCN5C[C@H](F)C6)nc(c34)N1C2 (single isomer, unassigned) [compound 179] |  |  | > 5 | < 5
12 | N#Cc1c(N)sc2c(F)ccc(-c3c(Cl)c4c5c(nc(OC[C@@]67CCCN6C[C@H](F)C7)nc5c3F)N3C[C@@H](N)C[C@H]3CO4)c12 [compound 191, 2-amino-4-((8aS,10S)-10-amino-6-chloro-4-fluoro-2-(((2R,7aS)-2-fluorotetrahydro-1H-pyrrolizin-7a(5H)-yl)methoxy)-8a,9,10,11-tetrahydro-8H-pyrrolo[2′,1′:3,4][1,4]oxazepino[5,6,7-de]quinazolin-5-yl)-7-fluorobenzo[b]thiophene-3-carbonitrile] | < 5 | < 5 | < 5 | < 5
13 | N#Cc1c(N)sc2c(F)ccc(-c3c(Cl)c4c5c(nc(OC[C@@]67CCCN6C[C@H](F)C7)nc5c3F)N3CCC[C@@H]3CC(C(F)F)O4)c12 (single isomer, unassigned) [compound 123] | < 5 | < 5 | < 5 | 
14 | CC(O)C1C[C@H]2CCCN2c2nc(OC[C@@]34CCCN3C[C@H](F)C4)nc3c(F)c(-c4ccc(F)c5sc(N)c(C#N)c45)c(Cl)c(c23)O1 (single isomer, unassigned) [compound 122] | < 5 | < 5 | < 5 | 
15 | CC(C)C1NCC12CC[C@H]1COc3c(Cl)c(-c4ccc(F)c5sc(N)c(C#N)c45)c(F)c4nc(OC[C@@]56CCCN5C[C@H](F)C6)nc(c34)N1C2 (single isomer, unassigned) [compound 130] | < 5 | < 5 | < 5 | 
